Measured values reported in ChEMBL document CHEMBL5727794, “P2X7 modulators” (2020).

Legend:
[1] = target: T1, P2X purinoceptor 7 (Rattus norvegicus, UniProt Q64663); test: (§1) On the day of the experiment, cell membrane preparations were made according to standard published methods. The total assay volume was 100 μl:10 μl compound (10×)+(b) 40 μl tracer (2.5×)+50 μl membrane (2×). The tracer used for the assay was tritiated A-804598. The compound can be prepared as described in the literature. […] The assay was terminated by filtration (GF/B filters pre-soaked with 0.3% PEI) and washed with washing buffer (Tris-HCl 50 mM). The IC50 generated in the binding assay was corrected for tracer concentration and affinity of the tracer to derive at the affinity (Ki) of the test compounds.
T1 sequence (Q64663 whole entry): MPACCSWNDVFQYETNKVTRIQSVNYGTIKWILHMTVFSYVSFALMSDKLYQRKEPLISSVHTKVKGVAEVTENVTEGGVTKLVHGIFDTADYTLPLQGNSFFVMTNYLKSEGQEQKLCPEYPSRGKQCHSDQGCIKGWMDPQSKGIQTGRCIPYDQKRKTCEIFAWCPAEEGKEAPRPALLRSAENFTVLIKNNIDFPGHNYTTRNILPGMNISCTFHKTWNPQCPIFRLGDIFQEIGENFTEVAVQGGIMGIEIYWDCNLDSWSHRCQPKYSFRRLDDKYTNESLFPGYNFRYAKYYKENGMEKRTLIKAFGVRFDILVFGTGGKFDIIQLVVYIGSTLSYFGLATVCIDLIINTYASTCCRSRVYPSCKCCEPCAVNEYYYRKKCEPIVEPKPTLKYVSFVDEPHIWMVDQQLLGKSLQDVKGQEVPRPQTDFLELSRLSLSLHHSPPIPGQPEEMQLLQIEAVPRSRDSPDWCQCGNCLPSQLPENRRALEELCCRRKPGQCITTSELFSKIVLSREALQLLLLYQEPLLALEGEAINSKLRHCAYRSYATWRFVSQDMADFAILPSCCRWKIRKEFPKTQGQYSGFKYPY

[2] = target: T2, P2X purinoceptor 7 (Homo sapiens, UniProt Q99572); test: as §1
T2 sequence (Q99572 whole entry): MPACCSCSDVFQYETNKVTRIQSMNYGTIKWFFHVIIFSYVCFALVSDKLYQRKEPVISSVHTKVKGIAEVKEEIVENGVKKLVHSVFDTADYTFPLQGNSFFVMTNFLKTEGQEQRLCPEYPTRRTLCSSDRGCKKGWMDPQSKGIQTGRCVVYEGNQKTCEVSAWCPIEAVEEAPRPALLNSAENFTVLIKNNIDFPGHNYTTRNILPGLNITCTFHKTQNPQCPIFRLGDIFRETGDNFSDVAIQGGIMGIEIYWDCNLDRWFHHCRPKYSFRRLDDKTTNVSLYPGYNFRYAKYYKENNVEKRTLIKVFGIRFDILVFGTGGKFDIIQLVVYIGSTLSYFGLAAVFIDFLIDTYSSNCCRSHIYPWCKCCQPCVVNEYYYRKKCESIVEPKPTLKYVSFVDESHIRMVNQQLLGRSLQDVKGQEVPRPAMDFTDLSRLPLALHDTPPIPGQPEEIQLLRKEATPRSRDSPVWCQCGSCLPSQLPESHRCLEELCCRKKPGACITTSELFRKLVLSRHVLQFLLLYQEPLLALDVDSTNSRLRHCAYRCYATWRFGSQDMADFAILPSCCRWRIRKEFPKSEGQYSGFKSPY

**Q.** What does the source list for `Cc1c(C(=O)N2Cc3nnn(C4=NN=CC4)c3CC2C)cccc1C(F)(F)F` (configuration not stated)?
**A.** IC50 [1]: 10.2 nM; IC50 [2]: 16.5 nM
